Values quoted from earlier work, collected in PMC7751758, “Repurposing Sigma-1 Receptor Ligands for COVID-19 Therapy?” (Frontiers in Pharmacology, 2020).
pIC50, pKi: −log10 of the molar value. Values joined by “and” are separate entries in the source; they are usually repeats but may differ in a detail not shown here. Identical values can stand only once. “Also recorded” adds a separate entry of the source.

Tests used:
Sigma-1 receptor = settings: for pKi: read-out: Sigma-1 receptor affinity Ki; for pIC50: read-out: Sigma-1 receptor affinity IC50
[1] = system: HCV infection of human hepatocarcinoma Huh-7 cells; settings: absence of cytotoxicity at low micromolar and submicromolar concentrations; ref Gastaminza et al., 2010
[2] = system: HCV-induced cytopathic effect on the engineered cell line n4mBid; settings: leads of the cell protection screen; ref Chockalingam et al., 2010
HCV infection = settings: without significantly reducing cell biomass; ref Mingorance et al., 2014

Molecule: CN(CCCN1c2ccccc2CCc2ccccc21)CC(=O)c1ccc(Cl)cc1 [Lofepramine]
- Sigma-1 receptor affinity, inhibition (Sigma-1 receptor; at 10 µM): 100% inh. at 10 µM
- pKi (Sigma-1 receptor): 5.60
- reduction in HCV infection of Huh-7 cells, as compared to the vehicle DMSO control [1]: > 85%

Molecule: Fc1ccc(-n2cc(CCCCN3CCC4(CC3)OCc3ccccc34)c3ccccc32)cc1 [Siramesine]
- pIC50 (Sigma-1 receptor): 7.77

Molecule: CN(C)CCCN1c2ccccc2Sc2ccc(C(F)(F)F)cc21 [Triflupromazine]
- pIC50 (Sigma-1 receptor): 6.33 and 6.22
- pKi (Sigma-1 receptor): 6.81
- Antiviral activity: Virus (SARS-CoV): in vitro activity
- Antiviral activity: Virus (MERS-CoV): in vitro activity
- alleviation of HCV-induced cytopathic effect (n4mBid cell viability relative to untreated cells) [2]: increase n4mBid cell viability

Molecule: Cc1cc2c(s1)Nc1ccccc1N=C2N1CCN(C)CC1 [olanzapine]
- Sig-1R activity (Sigma-1 receptor): no significant Sig-1R activity

Molecule: C[C@@H]1CN(CCCn2c3ccccc3c3ccccc32)C[C@H](C)N1 [Rimcazole, 9-[3-(cis-3,5-Dimethyl-1-piperazinyl)-propyl]carbazole]
- reduction in HCV infection of Huh-7 cells, as compared to the vehicle DMSO control [1]: > 85%

Molecule: CC(C)N1CCN(c2ccc(OCC3COC(Cn4cncn4)(c4ccc(Cl)cc4Cl)O3)cc2)CC1 (stereo not drawn) [Terconazole]
- pIC50 (Sigma-1 receptor): 6.80
- Antiviral activity: Virus (SARS-CoV): in vitro activity; also recorded: SARS-CoV SARS-CoV-2
- Antiviral activity: Virus (EBOV): active
- Antiviral activity: Virus (MERS-CoV): in vitro activity

Molecule: CN(C)CCOc1ccc(/C(=C(/CCCl)c2ccccc2)c2ccccc2)cc1 [Toremifene]
- pIC50 (Sigma-1 receptor): 6.66
- Antiviral activity: Virus (SARS-CoV): in vitro activity; also recorded: SARS-CoV SARS-CoV-2
- reduction in HCV infection of Huh-7 cells, as compared to the vehicle DMSO control [1]: > 85%
- Antiviral activity: Virus (EBOV): active
- Antiviral activity: Virus (MERS-CoV): in vitro activity

Molecule: O=[N+]([O-])c1ccc2nc(N3CCNCC3)ccc2c1 [Quipazine-6N]
- pIC50 (Sigma-1 receptor): 5.90
- alleviation of HCV-induced cytopathic effect (n4mBid cell viability relative to untreated cells) [2]: increase n4mBid cell viability

Molecule: Cc1nc2sccn2c(=O)c1CCN1CCC(=C(c2ccc(F)cc2)c2ccc(F)cc2)CC1 [Ritanserin]
- pIC50 (Sigma-1 receptor): 6.72
- alleviation of HCV-induced cytopathic effect (n4mBid cell viability relative to untreated cells) [2]: increase n4mBid cell viability

Molecule: OC(c1cc(C(F)(F)F)nc2c(C(F)(F)F)cccc12)C1CCCCN1 (stereo not drawn) [Mefloquine]
- pIC50 (Sigma-1 receptor): 5.59
- Antiviral activity: Virus (SARS-CoV): in vitro activity
- Antiviral activity: Virus (MERS-CoV): in vitro activity

Molecule: CNCCCN1c2ccccc2CCc2ccccc21 [Desipramine]
- reduction of HCV infection (HCV infection): more than one order of magnitude
- pIC50 (Sigma-1 receptor): 5.92
- pKi (Sigma-1 receptor): 5.70

Molecule: COc1ccccc1OCCNCC(O)COc1cccc2[nH]c3ccccc3c12 (stereo not drawn) [Carvedilol]
- pIC50 (Sigma-1 receptor): 5.80
- reduction in HCV infection of Huh-7 cells, as compared to the vehicle DMSO control [1]: > 85%

Molecule: CC(=O)[C@H]1CC[C@H]2[C@@H]3CCC4=CC(=O)CC[C@]4(C)[C@H]3CC[C@]12C [Progesterone]
- pIC50 (Sigma-1 receptor): 5.71
- pKi (Sigma-1 receptor): 6.71 to 6.76 and 6.47 to 6.59

Molecule: OCc1cc(C(O)CNCCCCCCOCCCCc2ccccc2)ccc1O (stereo not drawn) [Salmeterol]
- pIC50 (Sigma-1 receptor): 6.82
- reduction in HCV infection of Huh-7 cells, as compared to the vehicle DMSO control [1]: > 85%

Molecule: CCN(CC)CCCC(C)Nc1c2ccc(Cl)cc2nc2ccc(OC)cc12 (stereo not drawn) [Quinacrine]
- pIC50 (Sigma-1 receptor): 6.02
- Antiviral activity: Virus (EBOV): active

Molecule: Clc1ccc(C(OCCN2CCCCC2)c2ccccc2)cc1 (stereo not drawn) [Cloperastine]
- pIC50 (Sigma-1 receptor): 6.56
- pKi (Sigma-1 receptor): 7.70

Molecule: CN1CCN(c2nc3cc(C(F)(F)F)ccc3n3cccc23)CC1.O=C(O)/C=C\C(=O)O.O=C(O)/C=C\C(=O)O [CGS 12066B]
- pIC50 (Sigma-1 receptor): 5.93
- reduction in HCV infection of Huh-7 cells, as compared to the vehicle DMSO control [1]: > 85%

Molecule: COc1ccc(CN2CCN(C(c3ccc(F)cc3)c3ccc(F)cc3)CC2)c(OC)c1OC [Lomerizine]
- pIC50 (Sigma-1 receptor): 7.43
- Antiviral activity: Virus (EBOV): active

Molecule: CCN(CC)Cc1cc(Nc2ccnc3cc(Cl)ccc23)ccc1O [Amodiaquine]
- pIC50 (Sigma-1 receptor): 6.45
- Antiviral activity: Virus (SARS-CoV): in vitro activity
- Antiviral activity: Virus (MERS-CoV): in vitro activity

Molecule: CC(COc1ccccc1Cc1ccccc1)N1CCCCC1 (stereo not drawn) [Benproperine]
- pIC50 (Sigma-1 receptor): 7.72
- reduction in HCV infection of Huh-7 cells, as compared to the vehicle DMSO control [1]: > 85%

Molecule: C[C@@H]1C[C@@H]([C@H](O)CC2CC(=O)NC(=O)C2)C(=O)[C@@H](C)C1 [Cycloheximide]
- pIC50 (Sigma-1 receptor): 5.99
- Antiviral activity: Virus (SARS-CoV): in vitro activity
- Antiviral activity: Virus (MERS-CoV): in vitro activity

Molecule: OCCN1CCN(CCCN2c3ccccc3Sc3ccc(C(F)(F)F)cc32)CC1 [Fluphenazine]
- Antiviral activity: Virus (SARS-CoV): in vitro activity; also recorded: SARS-CoV SARS-CoV-2
- reduction in HCV infection of Huh-7 cells, as compared to the vehicle DMSO control [1]: > 85%
- Antiviral activity: Virus (EBOV): active
- Antiviral activity: Virus (MERS-CoV): in vitro activity

Molecule: CN1CCC(=C2c3ccccc3CC(=O)c3sccc32)CC1 [Ketotifen]
- pIC50 (Sigma-1 receptor): 5.42
- reduction in HCV infection of Huh-7 cells, as compared to the vehicle DMSO control [1]: > 85%

Molecule: Clc1ccc2c(c1)CCc1cccnc1C2=C1CCNCC1 [Desloratadine]
- reduction in HCV infection of Huh-7 cells, as compared to the vehicle DMSO control [1]: > 85%

Molecule: CC(C)(C)[C@]1(O)CCN2C[C@H]3c4ccccc4CCc4cccc(c43)[C@@H]2C1 [butaclamol]
- alleviation of HCV-induced cytopathic effect (n4mBid cell viability relative to untreated cells) [2]: increase n4mBid cell viability

Molecule: CN1CCCC(n2nc(Cc3ccc(Cl)cc3)c3ccccc3c2=O)CC1 (stereo not drawn) [Azelastine]
- pIC50 (Sigma-1 receptor): 6.56
- reduction in HCV infection of Huh-7 cells, as compared to the vehicle DMSO control [1]: > 85%

Molecule: OCCOCCN1CCN(C(c2ccccc2)c2ccc(Cl)cc2)CC1 (stereo not drawn) [Hydroxyzine]
- reduction of HCV infection (HCV infection): more than one order of magnitude
- pIC50 (Sigma-1 receptor): 6.47
- pKi (Sigma-1 receptor): 7.34

Molecule: CN1CCN(CC/C=C2/c3ccccc3Sc3ccc(S(=O)(=O)N(C)C)cc32)CC1 [Thiothixene]
- pIC50 (Sigma-1 receptor): 6.45
- Antiviral activity: Virus (SARS-CoV): in vitro activity
- Antiviral activity: Virus (MERS-CoV): in vitro activity

Molecule: CNCCCC12CCC(c3ccccc31)c1ccccc12 [Maprotiline]
- Antiviral activity: Virus (EBOV): active

Molecule: (±)-Butaclamol
- pIC50 (Sigma-1 receptor): 6.46

Molecule: (−)-Butaclamol
- pIC50 (Sigma-1 receptor): 6.74

Molecule: COc1ccc(CCN2CCC(Nc3nc4ccccc4n3Cc3ccc(F)cc3)CC2)cc1 [Astemizole]
- Antiviral activity: Virus (SARS-CoV): in vitro activity
- Antiviral activity: Virus (EBOV): active
- Antiviral activity: Virus (MERS-CoV): in vitro activity

Molecule: CNC1CC(c2ccc(Cl)c(Cl)c2)c2ccccc21 (stereo not drawn) [Indatraline]
- pIC50 (Sigma-1 receptor): 6.13
- reduction in HCV infection of Huh-7 cells, as compared to the vehicle DMSO control [1]: > 85%

Molecule: CC(=O)c1ccc2c(c1)N(CCCN1CCC(CCO)CC1)c1ccccc1S2 [Piperacetazine]
- pIC50 (Sigma-1 receptor): 6.08
- Antiviral activity: Virus (EBOV): active

Molecule: CN1CCC(=C2c3ccccc3C=Cc3ccccc32)CC1 [Cyproheptadine]
- reduction in HCV infection of Huh-7 cells, as compared to the vehicle DMSO control [1]: > 85%

Molecule: CN(C)CCOC(C)(c1ccccc1)c1ccc(Cl)cc1 (stereo not drawn) [Chlorphenoxamine]
- pIC50 (Sigma-1 receptor): 5.75
- Antiviral activity: Virus (SARS-CoV): in vitro activity
- Antiviral activity: Virus (MERS-CoV): in vitro activity

Molecule: OC(CCN1CCCCC1)(c1ccccc1)C1CC2C=CC1C2 (stereo not drawn) [biperiden]
- alleviation of HCV-induced cytopathic effect (n4mBid cell viability relative to untreated cells) [2]: increase n4mBid cell viability

Molecule: O=C1NCN(c2ccccc2)C12CCN(CCCC(c1ccc(F)cc1)c1ccc(F)cc1)CC2 [Fluspirilene]
- pIC50 (Sigma-1 receptor): 6.42 and 6.25
- pKi (Sigma-1 receptor): 6.82
- Antiviral activity: Virus (SARS-CoV): in vitro activity
- Antiviral activity: Virus (MERS-CoV): in vitro activity

Molecule: NC(=NCc1ccc(Cl)cc1)SCCCc1cnc[nH]1 [Clobenpropit]
- pIC50 (Sigma-1 receptor): 5.97
- reduction in HCV infection of Huh-7 cells, as compared to the vehicle DMSO control [1]: > 85%

Molecule: CC/C(=C(\c1ccccc1)c1ccc(OCCN(C)C)cc1)c1ccccc1 [Tamoxifen]
- reduction of HCV infection (HCV infection): more than one order of magnitude
- Antiviral activity: Virus (SARS-CoV): in vitro activity; also recorded: SARS-CoV SARS-CoV-2
- Antiviral activity: Virus (MERS-CoV): in vitro activity

Molecule: CNCCCC1c2ccccc2C=Cc2ccccc21 [Protriptyline]
- pIC50 (Sigma-1 receptor): 6.51
- alleviation of HCV-induced cytopathic effect (n4mBid cell viability relative to untreated cells) [2]: increase n4mBid cell viability

Molecule: Oc1cc2c(cc1O)C(c1ccccc1)CNCC2 (stereo not drawn) [SKF-38393]
- alleviation of HCV-induced cytopathic effect (n4mBid cell viability relative to untreated cells) [2]: increase n4mBid cell viability

Molecule: CN(C)CCCN1c2ccccc2CCc2ccccc21 [Imipramine]
- reduction of HCV infection (HCV infection): more than one order of magnitude
- pIC50 (Sigma-1 receptor): 6.28
- pKi (Sigma-1 receptor): 6.46

Molecule: Cl.Cl.OCCN1CCN(CCC=C2c3ccccc3Sc3ccc(C(F)(F)F)cc32)CC1 (mixture of isomers) [Flupentixol]
- Antiviral activity: Virus (EBOV): active

Molecule: CNCCC(Oc1ccc(C(F)(F)F)cc1)c1ccccc1 (stereo not drawn) [Fluoxetine]
- reduction of HCV infection (HCV infection): more than one order of magnitude
